Data from patent publication US6407134B1, “Heterocyclecarbonyl amino acid hydroxyethylamino sulfonamide retroviral protease inhibitors” (G. D. Searle & Co., priority 1995, dated 2002).
Read-outs that look alike come from different tables or passages of the source.

Legend:
[1] = tested on: HIV-1 in CEM cells; test: CEM cell assay: HIV inhibition in acutely infected cells, tetrazolium (MTT) based colorimetric assay; conditions: Human immunodeficiency virus 1, CCRF-CEM, 168 h; CEM cells acutely infected with HIV-1, 7 days, MTT readout
Description: The effectiveness of various compounds were determined in the above-described enzyme assay and in a CEM cell assay.
The HIV inhibition assay method of acutely infected cells is an automated tetrazolium based colorimetric assay essentially that reported by Pauwles et al, J. Virol. Methods, 20, 309-321 (1988). Assays were performed in 96-well tissue culture plates. CEM cells, a CD4+ cell line, were grown in RPMI-1640 medium (Gibco) supplemented with a 10% fetal calf serum and were then treated with polybrene (2 μg/ml). An 80 μl volume of medium containing 1×10^4 cells was dispensed into each well of the tissue culture plate. To each well was added a 100 μl volume of test compound dissolved in tissue culture medium (or medium without test compound as a control) to achieve the desired final concentration and the cells were incubated at 37° C. for 1 hour. […] Likewise, the intrinsic toxicity of the test compound was determined by adding medium without virus to several wells containing test compound. […]
Following the addition of virus, cells were incubated at 37° C. in a humidified, 5% CO2 atmosphere for 7 days. […] The absorbance at 590 nm was determined for each sample using a Molecular Devices microplate reader. Absorbance values for each set of wells is compared to assess viral control infection, uninfected control cell response as well as test compound by cytotoxicity and antiviral efficacy.

[2] = molecular target: T1, HIV protease (Human immunodeficiency virus type 1 group M subtype B, UniProt P04585); test: HIV protease enzyme assay (fluorescence, substrate 2-Ile-Nle-Phe(p-NO2)-Gln-ArgNH2); assay type: biochemical
T1 construct: HIV protease is diluted in the assay buffer to a final enzyme concentration of 12.3 nanomolar, based on a molecular weight of 10,780
From the text: The compounds of the present invention are effective HIV protease inhibitors. Utilizing an enzyme assay as described below, the compounds set forth in the examples herein disclosed inhibited the HIV enzyme. The preferred compounds of the present invention and their calculated IC50 (inhibiting concentration 50%, i.e., the concentration at which the inhibitor compound reduces enzyme activity by 50%) values are shown in Table 10. The enzyme method is described below. The substrate is 2-Ile-Nle-Phe(p-NO2)-Gln-ArgNH2. The positive control is MVT-101 (Miller, M. et al, Science, 246, 1149 (1989)] The assay conditions are as follows:
20 mM sodium phosphate, pH 6.4
The above described substrate is dissolved in DMSO, then diluted 10 fold in assay buffer. Final substrate concentration in the assay is 80 μM. HIV protease is diluted in the assay buffer to a final enzyme concentration of 12.3 nanomolar, based on a molecular weight of 10,780.
The final concentration of DMSO is 14% and the final concentration of glycerol is 18%. The test compound is dissolved in DMSO and diluted in DMSO to 10× the test concentration; 10 μl of the enzyme preparation is added, the materials mixed and then the mixture is incubated at ambient temperature for 15 minutes. […] The increase in fluorescence is monitored at 4 time points (0, 8, 16 and 24 minutes) at ambient temperature. […]

Row | Structure (SMILES) | EC50 [1] [nM] | IC50 [2] [nM] | IC50 ([2]; HIV protease 12.3 nanomolar, substrate 80 μM, pH 6.4, ambient temperature, read-out: IC50) [nM]
1 | CC(C)CN(C[C@@H](O)[C@H](Cc1ccccc1)NC(=O)[C@@H](NC(=O)[C@@H]1CCCN1)C(C)(C)C)S(=O)(=O)c1ccc2c(c1)OCO2 [Entry 1] | 12 | 2 | 
2 | CCC(C)[C@H](NC(=O)[C@@H]1CCCN1)C(=O)N[C@@H](Cc1ccccc1)[C@H](O)CN(CC(C)C)S(=O)(=O)c1ccc2c(c1)OCO2 (stereo partly drawn) [Entry 2] |  |  | 3
